Source: US12611475B2, “System for implantation by sterilisation techniques” (Universidade de Santiago de Compostela, priority 2020, dated 2026)
Where a name gives a salt, the structure may show the parent alone.

Experiments:
[1] = system: Bacillus pumilus spores (ATCC 27142); details: 150 ppm H2O2, CO2 39° C., 100 bar, continuous flow 10 g/min, 15 minutes; 10^6 spores
Experimental: Mask cutouts (4 cm 2) were inoculated with 10^6 spores contained in 100 μL of aqueous solution. The samples were placed inside sterilization bags and heat-sealed to be placed in a 600 mL stainless steel autoclave (Novagenesis, Novasterilis Inc.) provided with lower mechanical agitation. H2O2 was added as an additive at the bottom of the autoclave to avoid direct contact with the masks at a content of 150 ppm. The system is heated to 39° C. and pressurized with a CO2 flow to reach 100 bar. A continuous flow of CO2 of 0 to 10 g/min through the autoclave was maintained for a period of 15 minutes. Subsequently, the system is depressurized to reach atmospheric pressure at a rate of 14.3 bar/min.
The effectiveness of the sterilization method was evaluated by sowing tryptone-soybean agar culture medium and subsequent counting of formed colonies.

[2] = X-ray diffraction and infrared spectrum after treatment; type: physicochemical; details: 1200 ppm hydrogen peroxide, supercritical CO2 39° C., 140 bar, 2.5 and 2.5 hours; versus untreated
Experimental: FIG. 4. X-ray diffraction spectrum (A) and infrared spectrum (B) of vancomycin hydrochloride i) untreated and (ii) after addition of 1200 ppm hydrogen peroxide and processing with supercritical CO2 at 39° C., 140 bar during batch stages and continuous compressed CO2 flux for 2.5 and 2.5 hours, respectively. Caption: vancomycin untreated hydrochloride (black), vancomycin treated hydrochloride (gray)

With OO [Test H2O2, hydrogen peroxide] the “sterility level reached on FFP3 mask cutouts” value [1] was “SAL-6”.
In the case of CN[C@H](CC(C)C)C(=O)N[C@H]1C(=O)N[C@@H](CC(N)=O)C(=O)N[C@H]2C(=O)N[C@H]3C(=O)N[C@H](C(=O)N[C@H](C(=O)O)c4cc(O)cc(O)c4-c4cc3ccc4O)[C@H](O)c3ccc(c(Cl)c3)Oc3cc2cc(c3O[C@@H]2O[C@H](CO)[C@@H](O)[C@H](O)[C@H]2O[C@H]2C[C@](C)(N)[C@H](O)[C@H](C)O2)Oc2ccc(cc2Cl)[C@H]1O [Vancomycin hydrochloride, vancomycin hydrochloride], the “crystalline form after treatment” value [2] is reported as “not altered”.
